Test results from patent US8598157B2, “5-alkynyl-pyridines” (Boehringer Ingelheim International GmbH, priority 2011, dated 2013).

Key:
[1] = system: H460 cells; assay: alamarBlue H460 cell assay (antiproliferative/cytotoxicity); type: cell-based; details: NCI-H460; H460 human lung carcinoma cells
Description: (§1) The H460, MB453, U87, MCF7 and BT474 alamarBlue cell assays provide EC50 values indicative of the antiproliferative or cytotoxic effects of the compounds to respectively the H460 (human non small cell line cancer), MB-453 (breast cancer cell line), U87 (glioblastoma cell line), MCF7 (breast cancer cell line) and BT474 (breast cancer cell line). As known in the field, antiproliferative or cytotoxic effect against this cell lines would be expected to be indicative of activity in treating lung, breast and brain cancers. See R. Marone R et al. Biochim. Biophys. Acta. 2008 January; 1784(1):159-85. S. Yaguchi et al., J. Natl. Cancer Inst. 2006 Apr. 19; 98(8):545-56.
(§2) Method Type: Antiproliferative/Cytotoxicity
(§3) alamarBlue® is designed to provide a rapid and sensitive measure of cell proliferation and cytotoxicity in various human and animal cell lines. The assay is based on the reduction of alamarBlue in the reducing environment of living (metabolically active) cells. In the presence of added cytotoxic or antiproliferative compounds, the innate metabolic activity ceases.
(§4) AlamarBlue is soluble and stable in culture medium. Measurements are made fluorometrically by exciting at 530-560 nm and measuring emission at 590 nm. In reporting percent alamarBlue reduction by monitoring fluorescence, data are expressed as fluorescence emission intensity units as a function of time of incubation.
(§5) 3. Equipment • 96-well plates, flat bottom (Falcon, Cat. No.: 353072) • 96-well plates, U-shaped (Costar, Cat. No.: 3799) • CO2-Incubator • Microplate Reader, Spectramax Plus, Molecular Devices 4. Typical Procedure • Day 0: Seed 3000 BT-474 cells (IMDM/5% FCS, 1% NEAA, 1% Sodiumpyruvat) in 150 μl medium into a 96-well plate, flat bottom (include mediumblank). Incubate plates at 37° C. in a CO2 incubator overnight. • Day 1: Dilute compounds to a concentration 40 μM->1:3 in medium, 10 dilution steps, in 96-well plates. • Add 50 μl per well of each dilution (total volume per well 200 μl; final conc. of cpds: 10 μM->1:3). If required, test further dilutions. • All concentrations are tested in duplicates. • Controls: Cells w/o cpd. (+50 μl medium/DMSO). • Cells are incubated with compounds for 5-6 days. • Day 6 or 7: Add 25 μl of alamarBlue solution to each well and incubate for 8 hours at 37° C. Measure fluorescence by exciting at 530-560 nm and measuring emission at 590 nm. 5. Evaluation • Subtract average value for medium blank from sample readings • Calculate EC50 using GraphPad Prism (Fifty)

[2] = system: MB453 cells; assay: alamarBlue MB453 cell assay (antiproliferative/cytotoxicity); type: cell-based; details: Homo sapiens; MDA MB 453 breast cancer cell line
Description: as §1, §2, §3, §4, §5

[3] = system: U87 cells; assay: U87 cell assay (antiproliferative/cytotoxicity); type: cell-based; details: U-87MG human glioblastoma cells
Description: as §1, §2, §3, §4, §5

[4] = system: BT474 cells; assay: alamarBlue BT474 cell assay (antiproliferative/cytotoxicity); type: cell-based; details: BT-474 human breast cancer cell line
Description: as §1, §2, §3, §4, §5

[5] = system: MCF7 cells; assay: alamarBlue MCF7 cell assay (antiproliferative/cytotoxicity); type: cell-based; details: MCF7 human breast cancer cell line
Description: as §1, §2, §3, §4, §5

[6] = molecular target: PI3Kalpha (Homo sapiens (Human), UniProt P42336); assay: Inhibition of PI3Kalpha-induced PIP-2 phosphorylation (filter-binding assay); type: biochemical; details: 33P-ATP, p85alpha/His-p110alpha, read-out: IC50 PI3Kα
Description: Inhibition of PI3Kalpha-Induced PIP-2 Phosphorylation
This PI3Kalpha assay provides an IC50 value indicative of the activity of the compounds to inhibit PI3 kinase alpha activity. Inhibition of PI3 kinase would be expected to be indicative of activity in treating conditions of excessive or anomalous cell proliferation, such as cancers. See also J. A. Engelman, Nature Reviews Cancer, 2009, 9, 550-562; A. Carnero, Expert Opin. Investig. Drugs, 2009, 18, 1265-1277 and P. Liu et al., Nature Reviews Drug Discovery, 2009, 8, 627-64.
Method Type: Filter-Binding-Assay
Aliquoted in desired amounts and stored at −80° C. Final assay concentration 25 ng/well • Phosphotyrosin PDGFRbeta-peptide H-CGG-pY-[…]-pY-VPMLDM-NH2 was synthesized by Jerini Peptide Technologies (JPT) and used in a final conc. of 1.7 μM (stock 100 μM prepared in Assay buffer with DTT, aliquoted in desired amounts and stored at −80° C.) • Cold ATP (from Sigma; A-7699), 100 μM stock solution in H2O, use 1 μM final concentration in assay • [33P]-ATP, 370 MBq/ml from Amersham (#AH9968), use 0.5 μCi/well (10 mCi/ml) • Clear 96-well plates from Greiner (#655 162) • Filter plates: Perkin Elmer UniFilter GF/B #6005177 • Microscint 0 (from Perkin Elmer, #6013611) 2. Assay Procedure
The substrate-containing lipid vesicles are dissolved to a concentration of 0.637 mg lipid blend/ml assay buffer (with BSA, freshly added) in 50 ml Falcon->keep on ice, followed by ultrasonication (pulse of 15 sec followed by a pause of 10 sec, 4×). Compounds are serially diluted in assay buffer+6% DMSO and […] of each dilution is added per well of a 96-well plate (compounds are tested in duplicates) and mixed with 30 μl of the lipid vesicles containing PDGFR-Peptide ([…]) and PI3K alpha (25 ng/well final). The mixture is then incubated for 20 minutes at room temperature. Subsequently, 20 μl of assay buffer containing […] cold ATP and 0.5 μCi/20 μl 33P-ATP are added. The plates are then incubated at room temperature for 120 minutes (shaking with 300 rpm).
The reaction mix is transferred onto filter plates using “filtermate harvester” from Packard: filter plates are rinsed with PBS, then the reaction mix is filtered onto the filter plate, washed 5 times with PBS and are allowed to dry for 30-60 minutes at 50° C.
The plate bottom is sealed with Perkin Elmer white adhesive foil and 25 μl/well Microscint( ) are added, the top is covered with transparent adhesive foil and the plate is measured with Wallac Trilux 1450 Microbeta Counter.
As positive control serve wells containing vehicle controls (1% DMSO in assay buffer), showing non-inhibited kinase activity (high values). Wells containing assay buffer instead of enzyme can serve as control for background activity (low values).
Calculate IC50 values using the Smiley program (based on GrapPad Prism)

Sequence of PI3Kalpha (P42336 whole entry): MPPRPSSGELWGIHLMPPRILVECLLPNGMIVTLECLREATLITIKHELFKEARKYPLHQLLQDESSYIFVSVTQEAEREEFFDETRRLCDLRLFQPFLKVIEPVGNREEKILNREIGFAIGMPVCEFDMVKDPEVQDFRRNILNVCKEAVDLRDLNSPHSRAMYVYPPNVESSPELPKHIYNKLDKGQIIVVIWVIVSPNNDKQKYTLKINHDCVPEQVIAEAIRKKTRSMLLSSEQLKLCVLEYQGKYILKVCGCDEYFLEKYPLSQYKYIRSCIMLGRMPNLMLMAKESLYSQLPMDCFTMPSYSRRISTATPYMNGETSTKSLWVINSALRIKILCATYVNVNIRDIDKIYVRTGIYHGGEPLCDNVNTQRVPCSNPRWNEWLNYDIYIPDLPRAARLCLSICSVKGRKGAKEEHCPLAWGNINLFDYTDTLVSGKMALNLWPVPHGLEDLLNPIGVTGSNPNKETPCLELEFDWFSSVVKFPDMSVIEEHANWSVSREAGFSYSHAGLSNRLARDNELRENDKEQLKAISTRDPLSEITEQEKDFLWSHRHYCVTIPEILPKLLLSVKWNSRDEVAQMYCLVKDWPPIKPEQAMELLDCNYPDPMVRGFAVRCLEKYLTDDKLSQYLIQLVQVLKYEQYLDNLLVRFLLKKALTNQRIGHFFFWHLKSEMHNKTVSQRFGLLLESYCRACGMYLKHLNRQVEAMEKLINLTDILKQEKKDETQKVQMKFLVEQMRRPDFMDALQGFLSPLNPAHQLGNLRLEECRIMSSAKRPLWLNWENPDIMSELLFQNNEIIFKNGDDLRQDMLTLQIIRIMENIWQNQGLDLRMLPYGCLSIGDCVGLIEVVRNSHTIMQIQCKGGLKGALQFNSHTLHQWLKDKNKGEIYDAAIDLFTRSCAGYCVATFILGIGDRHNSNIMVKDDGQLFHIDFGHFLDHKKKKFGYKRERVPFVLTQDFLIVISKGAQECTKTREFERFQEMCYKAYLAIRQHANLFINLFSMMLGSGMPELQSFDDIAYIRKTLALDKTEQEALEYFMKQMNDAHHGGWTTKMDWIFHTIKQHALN

Question: `COc1ncc(C#Cc2c(C)ncnc2N2CCOCC2)cc1NS(=O)(=O)c1ccccc1` [Example I-1, N-[2-Methoxy-5-(4-methyl-6-morpholin-4-yl-pyrimidin-5-ylethynyl)-pyridin-3-yl]-benzenesulfonamide] was tested. Which EC50 [1] did it give?
Answer: 19 nM

Question: What about the EC50 [2] of the same compound?
Answer: 47 nM

Question: What about the EC50 [3] of the same compound?
Answer: 55 nM

Question: And the EC50 [4]?
Answer: 14 nM

Question: What about the EC50 [5] of the same compound?
Answer: 4 nM

Question: What about the IC50 [6] of the same compound?
Answer: 0.4 nM

Question: Which EC50 [4] does the source give for `Cc1ncnc(N2CCOCC2)c1C#Cc1cncc(NS(C)(=O)=O)c1` [Example I-24, N-[5-(4-Methyl-6-morpholin-4-yl-pyrimidin-5-ylethynyl)-pyridin-3-yl]-methanesulfonamide] here?
Answer: 2360 nM

Question: What about the EC50 [5] of the same compound?
Answer: 1110 nM

Question: What about the IC50 [6] of the same compound?
Answer: 4 nM

Question: Which results are given for `CCc1nc(N)nc(N2CCC(OC)CC2)c1C#Cc1cnc(C)c(NS(C)(=O)=O)c1` [Example I-34, N-{5-[2-Amino-4-ethyl-6-(4-methoxy-piperidin-1-yl)-pyrimidin-5-ylethynyl]-2-methyl-pyridin-3-yl}-methanesulfonamide]?
Answer: EC50 [4]: 433 nM; EC50 [5]: 74 nM; IC50 [6]: 2 nM

Question: Which EC50 [1] does the source give for `CCc1ncnc(N2CCC(OC)CC2)c1C#Cc1cnc(C)c(NS(C)(=O)=O)c1` [Example I-45, N-{5-[4-Ethyl-6-(4-methoxy-piperidin-1-yl)-pyrimidin-5-ylethynyl]-2-methyl-pyridin-3-yl}-methanesulfonamide] here?
Answer: 141 nM

Question: And the EC50 [4]?
Answer: 284 nM

Question: What about the EC50 [5] of the same compound?
Answer: 62 nM

Question: And the IC50 [6]?
Answer: 4 nM

Question: Which EC50 [1] does the source give for `CCc1ncnc(N2CCC(O)CC2)c1C#Cc1cnc(C)c(NS(C)(=O)=O)c1` [Example I-46, N-{5-[4-Ethyl-6-(4-hydroxy-piperidin-1-yl)-pyrimidin-5-ylethynyl]-2-methyl-pyridin-3-yl}-methanesulfonamide] here?
Answer: 880 nM

Question: What about the EC50 [4] of the same compound?
Answer: 1270 nM

Question: And the EC50 [5]?
Answer: 397 nM

Question: Which EC50 [1] does the source give for `Cc1ncc(C#Cc2c(C)ncnc2N2CCOCC2)cc1NS(=O)(=O)c1cnn(C)c1` [Example I-51, 1-Methyl-1H-pyrazole-4-sulfonic acid [2-methyl-5-(4-methyl-6-morpholin-4-yl-pyrimidin-5-ylethynyl)-pyridin-3-yl]-amide] here?
Answer: 196 nM

Question: What about the EC50 [2] of the same compound?
Answer: 199 nM

Question: And the EC50 [3]?
Answer: 315 nM

Question: And the EC50 [4]?
Answer: 311 nM

Question: What about the EC50 [5] of the same compound?
Answer: 12 nM

Question: `COc1ncc(C#Cc2c(C)ncnc2N2CCOCC2)cc1NS(C)(=O)=O` [Example I-81, N-[2-methoxy-5-(4-methyl-6-morpholin-4-yl-pyrimidin-5-ylethynyl)-pyridin-3-yl]-methylsulfonamide] was tested. Which EC50 [1] did it give?
Answer: 181 nM

Question: What about the EC50 [2] of the same compound?
Answer: 233 nM

Question: What about the EC50 [3] of the same compound?
Answer: 510 nM

Question: And the EC50 [4]?
Answer: 76 nM

Question: And the IC50 [6]?
Answer: 0.64 nM

Question: How did the EC50 [1] turn out when `COc1ncc(C#Cc2c(C)ncnc2N2CCOCC2)cc1NS(=O)(=O)c1ccccc1OC(F)(F)F` [Example I-82, 2-Trifluoromethoxy-N-[2-methoxy-5-(4-methyl-6-morpholin-4-yl-pyrimidin-5-ylethynyl)-pyridin-3-yl]-benzenesulfonamide] was run?
Answer: 24 nM

Question: What about the EC50 [2] of the same compound?
Answer: 27 nM

Question: And the EC50 [3]?
Answer: 50 nM

Question: What about the EC50 [4] of the same compound?
Answer: 25 nM

Question: What about the IC50 [6] of the same compound?
Answer: 0.5 nM

Question: For `COc1ncc(C#Cc2c(C)ncnc2N2CCOCC2)cc1NS(=O)(=O)c1ccccc1C(F)(F)F` [Example I-83, 2-Trifluoromethyl-N-[2-methoxy-5-(4-methyl-6-morpholin-4-yl-pyrimidin-5-ylethynyl)-pyridin-3-yl]-benzenesulfonamide], which EC50 [1] is on record?
Answer: 6 nM

Question: And the EC50 [2]?
Answer: 7 nM

Question: And the EC50 [3]?
Answer: 18 nM

Question: What about the EC50 [4] of the same compound?
Answer: 6 nM

Question: And the IC50 [6]?
Answer: 0.44 nM

Question: What does the source list for `COc1ncc(C#Cc2c(C)ncnc2N2CCOCC2)cc1NS(=O)(=O)c1ccc(Cl)cc1` [Example I-84, 4-Chloro-N-[2-methoxy-5-(4-methyl-6-morpholin-4-yl-pyrimidin-5-ylethynyl)-pyridin-3-yl]-benzenesulfonamide]?
Answer: EC50 [1]: 41 nM; EC50 [2]: 49 nM; EC50 [3]: 24 nM; EC50 [4]: 48 nM; IC50 [6]: 0.3 nM

Question: Which results are given for `COc1ncc(C#Cc2c(C)ncnc2N2CCOCC2)cc1NS(=O)(=O)c1ccc(Cl)s1` [Example I-85, 5-Chloro-N-[2-methoxy-5-(4-methyl-6-morpholin-4-yl-pyrimidin-5-ylethynyl)-pyridin-3-yl]-thiophene-2-sulfonamide]?
Answer: EC50 [1]: 47 nM; EC50 [2]: 40 nM; EC50 [3]: 64 nM; EC50 [4]: 34 nM; IC50 [6]: 0.38 nM

Question: Which results are given for `COc1ncc(C#Cc2c(C)ncnc2N2CCOCC2)cc1NS(=O)(=O)c1cccs1` [Example I-86, N-[2-Methoxy-5-(4-methyl-6-morpholin-4-yl-pyrimidin-5-ylethynyl)-pyridin-3-yl]-thiophene-2-sulfonamide]?
Answer: EC50 [1]: 10 nM; EC50 [2]: 14 nM; EC50 [3]: 42 nM; EC50 [4]: 12 nM; IC50 [6]: 0.39 nM

Question: With `COc1ncc(C#Cc2c(C)ncnc2N2CCOCC2)cc1NS(=O)(=O)c1ccnn1C` [Example I-87, N-[2-methoxy-5-[2-(4-methyl-6-morpholin-4-ylpyrimidin-5-yl)ethynyl]pyridin-3-yl]-2-methylpyrazole-3-sulfonamide] as the compound, how does the EC50 [1] read?
Answer: 30 nM

Question: And the EC50 [2]?
Answer: 15 nM

Question: What about the EC50 [3] of the same compound?
Answer: 54 nM

Question: And the EC50 [4]?
Answer: 20 nM

Question: And the IC50 [6]?
Answer: 0.45 nM

Question: How did the EC50 [1] turn out when `COc1ncc(C#Cc2c(C)ncnc2N2CCOCC2)cc1NS(=O)(=O)c1cnn(C)c1` [Example I-88, N-[2-methoxy-5-[2-(4-methyl-6-morpholin-4-ylpyrimidin-5-yl)ethynyl]pyridin-3-yl]-1-methylpyrazole-4-sulfonamide] was run?
Answer: 21 nM

Question: What about the EC50 [2] of the same compound?
Answer: 8 nM

Question: What about the EC50 [3] of the same compound?
Answer: 27 nM

Question: And the EC50 [4]?
Answer: 62 nM

Question: What about the IC50 [6] of the same compound?
Answer: 0.55 nM

Question: `COc1ncc(C#Cc2c(C)ncnc2N2CCOCC2)cc1NS(=O)(=O)c1ccc(C)o1` [Example I-89, N-[2-methoxy-5-[2-(4-methyl-6-morpholin-4-ylpyrimidin-5-yl)ethynyl]pyridin-3-yl]-5-methylfuran-2-sulfonamide] was tested. Which EC50 [1] did it give?
Answer: 26 nM

Question: What about the EC50 [2] of the same compound?
Answer: 38 nM

Question: And the EC50 [3]?
Answer: 42 nM

Question: What about the EC50 [4] of the same compound?
Answer: 63 nM

Question: What about the IC50 [6] of the same compound?
Answer: 0.53 nM
